Source: patent publication EP0260057A2, “2-Oxo-4-carboxy-pyrimidines” (THE UNIVERSITY OF MELBOURNE, priority 1986, dated 1988)
pKi: −log10 of the molar value.

Biological target: T1, dihydroorotase (Mesocricetus auratus, UniProt P08955)
T1 construct: purified by an established procedure from a mutant hamster cell line which overproduces the target enzyme; endogenous in cells; host or cells: mutant hamster cell line overproducing the enzyme more than 100-fold; enzyme purified from these cells
Experiment: Dihydroorotase inhibition assay (conversion of L-[14C]dihydroorotate to N-[14C]carbamyl-L-aspartate)
Assay type: biochemical, hamster
Method: Dihydroorotase has been purified by an established procedure from a mutant hamster cell line which overproduces the target enzyme by more than 100-fold (P.F. Coleman, D.P. Suttle and G.R. Stark (1978) in "Methods in Enzymology" (P.A. Hoffee and M.E. Jones eds.) Vol. 51, pp 121-134, Academic Press, New York; P.F. Coleman D.P. Suttle and G.R. Stark (1977) J. Biol. Chem. 252, 6379-6385). Purified dihydroorotase was stored at -70°C in a solution containing 30% (v/v) dimethyl sulphoxide, 5% (v/v) glycerol, 50 mM KCl, 4 mM L-glutamine, 4 mM L-aspartate, 0.1 mM EDTA and 1 mM dithiothreitol.
Dihydroorotase catalyses the conversion of N-carbamyl-L-aspartate to L-dihydroorotate. To assess the effects of a potential inhibitor of this target enzyme, the rate of conversion of L-dihydroorotate to N-carbamyl-L-aspartate catalysed by dihydroorotase was measured in the presence of a range of concentrations of the inhibitor. For a tight-binding inhibitor like TDHO, extremely low concentrations are sufficient to abolish all dihydroorotase activity. To illustrate the inhibitory potency of TDHO, results of the following experiment are presented. Assay mixtures for dihydroorotase activity contained in a total volume of 25 ul, 50 mM K.Hepes buffer pH 7.4, 5% (v/v) glycerol 12.5 µM L-[¹⁴C]dihydroorotate (specific radioactivity 47.1 Ci/mol), and TDHO concentrations ranging from 0 - 1.50 µM containing a 30-fold molar excess of ZnCl₂. Catalysis was initiated by addition of 39 ng of dihydroorotase. The rate of conversion of L-[¹⁴C]dihydroorotate to N-[¹⁴C]carbamyl-L-aspartate was measured in the presence of different concentrations of TDHO, using established procedures (R.I. Christopherson, T. Matsuura and M.E. Jones (1978) Analytical Biochemistry 100, 184-187). The assay mixture lacking TDHO had the fastest reaction velocity while the lowest velocity measured was in the presence of the highest concentration of TDHO. The results data are plotted as the reciprocal of reaction velocity (l/v) versus the concentration of TDHO from which a value for the dissociation constant (Ki value) for TDHO from the enzyme-TDHO complex can be obtained.
Assay mixtures for dihydroorotase activity contained in a total volume of 25 µl:50 mM K.Hepes buffer pH 7.4, 5% (v/v) glycerol, 12.5 µM L-[¹⁴C]dihydroorotate (specific radioactivity 47.1 Ci/mol), and HDDP concentrations ranging from 0 - 5 µM. Catalysis was initiated by addition of 39 ng of dihydroorotase. The rate of conversion of L-[¹⁴C]dihydroorotate to N-[¹⁴C]carbamyl-L-aspartate was measured in the presence of different concentrations of HDDP, in a similar manner to Test 3.

T1 sequence (P08955 whole entry): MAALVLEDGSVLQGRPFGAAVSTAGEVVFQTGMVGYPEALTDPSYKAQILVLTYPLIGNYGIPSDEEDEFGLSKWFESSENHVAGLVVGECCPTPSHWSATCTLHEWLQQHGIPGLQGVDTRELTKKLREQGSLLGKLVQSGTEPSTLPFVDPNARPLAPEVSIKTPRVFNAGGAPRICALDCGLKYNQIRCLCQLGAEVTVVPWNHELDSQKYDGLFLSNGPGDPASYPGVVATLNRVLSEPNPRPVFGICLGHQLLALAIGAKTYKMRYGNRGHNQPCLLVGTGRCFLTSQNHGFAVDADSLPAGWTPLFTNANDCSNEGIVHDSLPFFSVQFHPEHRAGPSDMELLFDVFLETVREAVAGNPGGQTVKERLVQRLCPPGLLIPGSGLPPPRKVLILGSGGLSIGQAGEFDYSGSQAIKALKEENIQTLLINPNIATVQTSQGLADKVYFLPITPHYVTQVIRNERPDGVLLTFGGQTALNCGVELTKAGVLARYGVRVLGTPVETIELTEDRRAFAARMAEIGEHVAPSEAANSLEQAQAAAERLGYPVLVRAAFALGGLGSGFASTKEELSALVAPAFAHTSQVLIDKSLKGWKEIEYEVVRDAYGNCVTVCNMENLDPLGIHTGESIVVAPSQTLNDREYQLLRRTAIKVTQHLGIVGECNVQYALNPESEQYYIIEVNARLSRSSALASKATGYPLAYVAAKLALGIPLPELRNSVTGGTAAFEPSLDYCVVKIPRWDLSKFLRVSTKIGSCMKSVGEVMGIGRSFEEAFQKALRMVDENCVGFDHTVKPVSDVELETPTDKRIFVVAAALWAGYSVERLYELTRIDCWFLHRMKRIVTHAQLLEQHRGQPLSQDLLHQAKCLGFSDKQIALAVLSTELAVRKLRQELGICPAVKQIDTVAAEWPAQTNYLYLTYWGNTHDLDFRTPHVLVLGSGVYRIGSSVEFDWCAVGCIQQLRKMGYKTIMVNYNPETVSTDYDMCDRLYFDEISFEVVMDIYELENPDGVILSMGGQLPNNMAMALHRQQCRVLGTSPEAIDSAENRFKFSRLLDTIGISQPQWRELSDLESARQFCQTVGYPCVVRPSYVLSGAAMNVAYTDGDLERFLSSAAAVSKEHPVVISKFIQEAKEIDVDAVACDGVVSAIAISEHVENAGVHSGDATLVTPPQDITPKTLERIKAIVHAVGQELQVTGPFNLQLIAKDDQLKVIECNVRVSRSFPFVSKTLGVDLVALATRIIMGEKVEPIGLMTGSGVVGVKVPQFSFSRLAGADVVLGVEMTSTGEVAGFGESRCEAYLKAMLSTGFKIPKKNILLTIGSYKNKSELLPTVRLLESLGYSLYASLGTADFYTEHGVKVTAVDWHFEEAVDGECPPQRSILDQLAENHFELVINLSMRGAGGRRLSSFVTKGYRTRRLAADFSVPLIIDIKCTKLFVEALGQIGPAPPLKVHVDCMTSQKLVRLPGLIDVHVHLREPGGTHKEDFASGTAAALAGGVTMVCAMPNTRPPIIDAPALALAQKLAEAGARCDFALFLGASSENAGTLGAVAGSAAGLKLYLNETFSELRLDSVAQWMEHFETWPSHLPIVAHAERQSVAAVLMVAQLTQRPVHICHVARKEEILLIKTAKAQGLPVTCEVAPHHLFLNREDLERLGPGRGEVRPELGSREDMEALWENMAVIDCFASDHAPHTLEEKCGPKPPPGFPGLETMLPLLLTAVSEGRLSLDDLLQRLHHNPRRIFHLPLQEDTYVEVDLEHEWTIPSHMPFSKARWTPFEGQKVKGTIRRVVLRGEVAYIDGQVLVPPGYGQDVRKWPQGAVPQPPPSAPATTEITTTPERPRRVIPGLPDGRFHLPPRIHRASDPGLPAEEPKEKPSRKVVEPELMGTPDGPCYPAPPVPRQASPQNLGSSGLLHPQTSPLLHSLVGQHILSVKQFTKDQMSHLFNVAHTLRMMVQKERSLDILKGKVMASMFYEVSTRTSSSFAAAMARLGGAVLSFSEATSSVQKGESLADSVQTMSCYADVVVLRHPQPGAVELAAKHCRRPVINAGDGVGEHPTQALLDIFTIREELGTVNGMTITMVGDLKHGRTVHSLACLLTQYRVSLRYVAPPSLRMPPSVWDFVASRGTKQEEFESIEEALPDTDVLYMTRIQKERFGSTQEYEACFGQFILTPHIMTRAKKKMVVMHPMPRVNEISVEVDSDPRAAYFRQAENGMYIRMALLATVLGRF

**Q.** `O=C1NC(C(=O)O)=CC(C(=O)O)N1` (stereo not shown) [HDDP, 2-oxo-1,2,3,6-tetrahydropyrimidine-4,6-dicarboxylic acid] was tested. Which pKi (HDDP 0 - 5 µM, pH 7.4, 12.5 µM L-[¹⁴C]dihydroorotate, no ZnCl₂ mentioned) did it give?
**A.** 6.32

**Q.** With `O=C1NC(=S)CC(C(=O)O)N1` (stereo not shown) [TDHO, Hexahydro-2-oxo-6-thioxo-4-pyrimidinecarboxylic acid] as the compound, how does the pKi (TDHO containing a 30-fold molar excess of ZnCl₂, pH 7.4, 12.5 µM L-[¹⁴C]dihydroorotate) read?
**A.** 7.28

**Q.** What about the pKi (free acid of TDHO, in the absence of Zn²⁺) of the same compound?
**A.** 5.35

**Q.** How did the inhibitory effect (ZnCl₂ alone, at the same concentrations as in the TDHO experiment) turn out when ZnCl₂ [reference compound] was run?
**A.** moderate inhibitory effect
